Assay results reported in patent publication US8992990B2, “Magnetic nanocomposite for inhibiting/treating cancer and method for fabricating the same” (Chang Gung University, priority 2009, dated 2015).

Key:
mouse glioma cells (C6) = test: In vitro toxicity / cell growth inhibition, XTT assay, C6 cells; format: cell-based; conditions: 100 μM, 12 hours later
Method: Place 150 μL of a mixture liquid containing 10000 mouse glioma cells (C6) into every well of a 96-well culture plate. Place the culture plates in a humidified incubator at a temperature of 37 C.° and with 5% CO2 to enable adherent growth of the cells. […] Once cell counting begins, remove RPMI1640 and add 120 μL of an XTT reaction liquid (2,3-Bis(2-methoxy-4-nitro-5-sulfophenyl)-2H-tetrazolium-5-carboxanili de inner salt).

human glioma cells (U87) = test: In vitro toxicity / cell growth inhibition, XTT assay, U87 cells; format: cell-based; conditions: 100 μM, 72 hours later
Method: Place 150 μL of a mixture liquid containing 10000 human glioma cells (U87) into every well of a 96-well culture plate. Place the culture plates in a humidified incubator at a temperature of 37 C.° and with 5% CO2 to enable adherent growth of the cells. […] Once cell counting begins, remove RPMI1640 and add 120 μL of an XTT reaction liquid (2,3-Bis(2-methoxy-4-nitro-5-sulfophenyl)-2H-tetrazolium-5-carboxanili de inner salt).

[1] = Storage stability, residual activity by Bratton-Marshall assay
Excerpt: Use the Bratton-Marshall assay to detect the residual activities after the storages of 1-30 days for comparing the storage stabilities. Refer to FIGS. 5(a)-5(c).

Question: Which “C6 cell growth-inhibition ratio” value (mouse glioma cells (C6)) does the source give for `O=NN(CCCl)C(=O)NCCCl` [BCNU, 1,3-bis(2-chloroethyl)-1-nitrosourea] here?
Answer: 53%

Question: And the “U87 cell growth-inhibition ratio” value (human glioma cells (U87))?
Answer: 49%

Question: And the solubility in water (Solubility in water)?
Answer: low solubility in water

Question: What about the half-life ([1]; storing at 4° C.) of the same compound?
Answer: 300 h

Question: What about the half-life ([1]; storing at 25° C.) of the same compound?
Answer: 22 h

Question: And the half-life ([1]; storing at 37° C.)?
Answer: 12 h

Question: And the remains after storage ([1]; stored for 30 days)?
Answer: 22%
